Where “and” joins values, the source holds several entries; their conditions need not be identical. Equal entries are not always repeated.
Legend:
[1] = system: MDA-MB-231 cells; experiment: Cell cycle analysis by flow cytometry (propidium iodide), MDA-MB-231; format: cell-based; conditions: MDA-MB-231, 24 h incubation, FACS
Description: (§1) The cell cycle analysis was conducted by flow cytometry using the manufacturer’s protocol. Briefly, MDA-MB-231 and SiHa cells (1 × 10^5cells/well) were incubated with MTX and MTX–G–P4LDN–E2 for 24 h, trypsinized, and centrifuged to collect the pellet. The cells were then fixed with pre-cooled 70% ethanol at 4 °C for 45 min. After fixation, the pellet was collected carefully after centrifugation at 850× g for 5 min. It was then washed twice with 1X PBS, and 50 μL RNase (100 μg/mL) was added and incubated for 45 min at 37 °C. Then, the cells were washed with 1X PBS and stained with propidium iodide (100 μL, 50 μg/mL) for 10 min. The cellular DNA was analyzed by flow cytometer, and the percentage of cells in each phase of the cell cycle was analyzed by BD FACS Diva software.

[2] = system: MDA-MB-231 tumor; experiment: Anti-tumor efficacy in MDA-MB-231 tumor-bearing NOD-SCID mice; format: in vivo; conditions: female NOD-SCID mice, tail vein, 5 times for 20 days
Description: For analyzing the efficacy of the nanocarrier systems, fifteen male and fifteen female NOD-SCID mice were assigned to three groups each (n = 3 in first group and n = 6 in second and third groups). Tumor was implanted by injecting cells subcutaneously in the dorsolateral flank with a concentration of 5 × 10^6 MDA-MB-231 cells to female NOD-SCID mice. When the volume of tumor reached 500–1000 mm^3, the first group of animals, serving as the control group, was given PBS (5 mL/kg body weight). The second group was given free-drug MTX (20 mg/kg) through the tail vein. The third group received MTX–G–P4LDN–E2 (35 mg/kg, equivalent to the MTX concentration) through the tail vein, and the treatment was given to the mice 5 times for 20 days.
The tumor volume and body weight of the animals were measured before each injection. The body weight and tumor volume on the final day (24th day) was also calculated. A vernier caliper was used to measure the tumor, and the tumor volume was calculated using the formula: Tumor volume (mm^3)=(length in mm)×(width in mm)^2/2
The treatment was started when the tumor volume reached 500–1000 mm^3. There were 3 groups (n = 3 for control group and n = 6 for treatment groups). First group received PBS (5 mL/kg body weight) was treated as the control. […] On every injection day, the tumor volume as well as the body weight of the animals were measured.

[3] = system: SiHa cells; experiment: Cytotoxicity by MTT assay, SiHa; format: cell-based; conditions: SiHa (receptor negative), MTX 5 µg/mL or nanocarrier system at equivalent drug concentration (8.6 µg/mL), 48 h, triplicate
Description: (§2) The cytotoxic efficacy of MTX–G–P4LDN–E2 was analyzed by an MTT assay. The cells were seeded in a 96-well plate at a density of 5000 cells per well. […] After 48 h of incubation, the cells were washed twice with 1X PBS, followed by the addition of MTT reagent (100 μL; 5 mg/mL in PBS) and 100 μL serum-free media to all wells and incubated for 3 h. Then DMSO (100 µL) was added to solubilize the formazan crystals, formed in viable cells. After 20 min, the optical density (OD) was measured at 570 nm using a microplate reader (BioRad). The percentage cell viability was calculated as 100 percentage cytotoxicity, where: % cytotoxicity=O.D of control−O.D of test /O.D of control[…]

[4] = system: MDA-MB-231 cells; experiment: Cytotoxicity by MTT assay, MDA-MB-231; format: cell-based; conditions: MDA-MB-231 (receptor positive), MTX 5 µg/mL or nanocarrier system at equivalent drug concentration (8.6 µg/mL), 48 h, triplicate
Description: as §2

[5] = system: MDA-MB-231 (EGFR overexpressed) cells; experiment: Functional evaluation by confocal microscopy, MDA-MB-231; format: cell-based; conditions: fluorescein MTX 5 µg/mL or conjugated system 8.6 µg/mL, 24 h
Description: (§3) MDA-MB-231 (EGFR overexpressed) and SiHa (EGFR negative) cells were grown on coverslips inside the 6-well plates, and the receptor binding ability of MTX–G–P4LDN–E2 was analyzed by confocal microscopy. Fluorescein methotrexate (5 µg/mL) and fluorescein MTX conjugated system (8.6 µg/mL; having equivalent methotrexate concentrations) were added to the wells and incubated for 24 h. The cells without MTX or DDS treatment were taken as the control. Then, Hoechst 33342 (10 µg/mL) was added and incubated for 15 min. The cells were observed under a confocal laser scanning microscope at suitable magnifications.

[6] = system: SiHa (EGFR negative) cells; experiment: Receptor binding ability by flow cytometry, SiHa; format: cell-based; conditions: fluorescein MTX 5 µg/mL or fluorescein MTX-conjugated system 8.6 µg/mL (equivalent MTX), 24 h
Description: (§4) Then fluorescein MTX (5 µg/mL) and fluorescein MTX-conjugated systems (8.6 µg/mL; having equivalent MTX concentrations) were added to each well and incubated for 24 h. After incubation, the cells were trypsinized and analyzed by flow cytometry. The cells without MTX or DDS treatment were taken as the control.

[7] = system: SiHa cells; experiment: Cell cycle analysis by flow cytometry (propidium iodide), SiHa; format: cell-based; conditions: 24 h incubation, FACS
Description: as §1

[8] = system: SiHa (EGFR negative) cells; experiment: Functional evaluation by confocal microscopy, SiHa; format: cell-based; conditions: fluorescein MTX 5 µg/mL or conjugated system 8.6 µg/mL, 24 h
Description: as §3

[9] = system: MDA-MB-231 (EGFR overexpressed) cells; experiment: Receptor binding ability by flow cytometry, MDA-MB-231; format: cell-based; conditions: fluorescein MTX 5 µg/mL or fluorescein MTX-conjugated system 8.6 µg/mL (equivalent MTX), 24 h
Description: as §4

[10] = system: MDA-MB-231 cells; experiment: In vitro binding of rhodamine B-conjugated peptides, MDA-MB-231; format: cell-based; conditions: MDA-MB-231, 2 h, 37 °C, flow cytometry and confocal imaging
Description: Figure S4. Binding activities of rho B-conjugated peptides after incubating with MDA-MB-231 cells for 2 hours at 37°C. a) Untreated control MDA-MB-231 cell. MDA-MB-231 cells binding with b) E1, c) E2, d) E3, e) E4, and f) E5. g) Binding affinity percentages of rho B- conjugated peptides. […]
Figure S6. Internalization of peptides in MDA -MB-231 cells. MDA-MB-231 (EGFR overexpressed) cells were incubated with E1 to E5 peptides (50 µM) for 2 hours at 37°C. Rho-B alone was given as the control. The cells were nuclear stained […]
(1 picture or pasted object on this page, not shown here)

Molecule | Percentage of cells in G0 [1] [%] | Percentage of cells in G1 [1] [%] | Percentage of cells in G2-M [1] [%] | Percentage of cells in S [1] [%] | Average tumor volume at the end of the treatment ([2]; MTX 20 mg/kg or MTX–G–P4LDN–E2 35 mg/kg (equivalent MTX), day 25, n = 6, mean ± SD, control 2890 ± 85.440) [mm^3] | Reduction in tumor volume compared to control ([2]; MTX 20 mg/kg or MTX–G–P4LDN–E2 35 mg/kg, day 25, n = 6) [%] | Cytotoxicity [3] [%] | Cytotoxicity [4] [%] | Binding (fluorescence) in confocal images [5] | Binding ability (% of cells, P2) [6] [%] | Percentage of cells in G0 [7] [%] | Percentage of cells in G1 [7] [%] | Percentage of cells in G2-M [7] [%] | Percentage of cells in S [7] [%] | Binding (fluorescence) in confocal images [8] | Binding ability (% of cells, P2) [9] | Binding efficacy of the short peptides in vitro [10]
CN(Cc1cnc2nc(N)nc(N)c2n1)c1ccc(C(=O)N[C@@H](CCC(=O)O)C(=O)O)cc1 [MTX, methotrexate] | 9 | 52.1 | 14.9 | 19.1 | 661.8 ± 209.067 | 77.2 | 57 | 63 | bound with the MDA-MB-231 cells similarly | 82.4 | 14.4 | 64.3 | 10.7 | 8.8 | only the free drug showed fluorescence | 99.6% and > 99% | –
ARSHVGYTGAR [E2, EGFR-specific short peptide …] | – | – | – | – | – | – | – | – | – | – | – | – | – | – | – | – | highest binding efficacy

From article PMC8836561, “Poly-Lysine Dendritic Nanocarrier to Target Epidermal Growth Factor Receptor Overexpressed Breast Cancer for Methotrexate Delivery” (Materials, 2022)
